Measured values published in PubChem BioAssay AID1996.
≈ marks a conversion by molar mass, not a printed value.

Details: buffer; pH 7.4; 200.0 µM
Compound `O=C(Nc1ccccc1C(F)(F)F)c1cc2ccccc2o1` has a solubility kinetic of less than 0.7 µg/mL.
In the case of `CCOc1ccc(C2=CSC3=NCCN23)cc1[N+](=O)[O-]`, the solubility kinetic is reported as 36.2 µg/mL (≈ 124 µM).
`O=S(=O)(NCCN1CCOCC1)c1ccc2ccccc2c1` gave a solubility kinetic greater than 48.1 µg/mL.
With `O=C1NC(=O)C(c2ccc(F)cc2)N1` (centres undefined) the solubility kinetic was greater than 29.1 µg/mL.
`Cc1cc(Cl)n2c(nc3ccccc32)c1C#N` gave a solubility kinetic of 15.3 µg/mL (≈ 63.3 µM).
With `O=C(OCC(=O)N1CCCC1)c1c(Cl)cccc1Cl` the solubility kinetic was 39.6 µg/mL (≈ 131 µM).
`O=C(O)CCCN1C(=O)c2cccc3cccc(c23)C1=O` showed a solubility kinetic of 31.8 µg/mL (≈ 112 µM).
`Cc1csc(=O)n1CCC(=O)OC(C)C(=O)NCc1ccccc1` (centres undefined) showed a solubility kinetic greater than 52.3 µg/mL.
In the case of `Cc1c(-c2ccccc2)nc(N)c(C#N)c1-c1cccnc1`, the solubility kinetic is reported as 5 µg/mL (≈ 17.5 µM).
With `O=C(NCc1cccnc1)Nc1ccccc1Cl` the solubility kinetic was greater than 39.3 µg/mL.
For `CC[C@@H](Nc1ncnc2c1oc1ccccc12)C(=O)O`, the solubility kinetic was 29.9 µg/mL (≈ 110 µM).
Work on `CN(c1ccccc1)c1nc(N)c([N+](=O)[O-])c(NCc2ccccc2)n1` yielded a solubility kinetic of less than 0.1 µg/mL.
`COc1cc(C)c(NC(=O)c2cccc(S(=O)(=O)N3CCCC3)c2)cc1OC` gave a solubility kinetic of 32.5 µg/mL (≈ 80.3 µM).
`COc1ccc(C2C(C(C)=O)=C(O)C(=O)N2c2ccc(O)cc2)cc1` (centres undefined) gave a solubility kinetic greater than 50.9 µg/mL.
`O=[N+]([O-])c1ccc(Oc2ccc(OCc3ccccc3)cc2)nc1` showed a solubility kinetic of less than 0.3 µg/mL.
In the case of `N#C/C(=C/c1cccc(O)c1)C(=O)NCc1ccc(Cl)cc1`, the solubility kinetic is reported as 1.3 µg/mL (≈ 4.16 µM).
Work on `CC(C)C1(CCNC(=O)c2cccs2)CCOC(C)(C)C1` (centres undefined) yielded a solubility kinetic of 42 µg/mL (≈ 136 µM).
In the case of `Cn1cc(-c2cc(C(=O)O)on2)cn1`, the solubility kinetic is reported as greater than 29 µg/mL.
For `Cc1sc2ncnc(NC(C)C(=O)O)c2c1C` (centres undefined), the solubility kinetic was greater than 37.7 µg/mL.
`Cc1ccc(N2C(=O)N(c3ccc(C)cc3)C3CS(=O)(=O)CC32)cc1` (centres undefined) gave a solubility kinetic of 12.9 µg/mL (≈ 36.2 µM).
Compound `COc1cc2c(cc1OC)CN(c1ccc(C(N)=O)cc1[N+](=O)[O-])CC2` has a solubility kinetic of 6.4 µg/mL (≈ 17.9 µM).
With `Cc1cc(C)c(N2C(=O)CCCC2=O)c(Cl)c1` the solubility kinetic was greater than 37.8 µg/mL.
`Nc1ncnc(NC2CCS(=O)(=O)C2)c1[N+](=O)[O-]` (centres undefined) gave a solubility kinetic greater than 41 µg/mL.
`COc1ccc2[nH]c(C(=O)N(C)c3ccc(F)cc3F)cc2c1` gave a solubility kinetic of less than 0.3 µg/mL.
`Cn1c(N)c(C(=O)COC(=O)c2cc3ccccc3cc2O)c(=O)n(C)c1=O` gave a solubility kinetic of 3.6 µg/mL (≈ 9.39 µM).
`CC(=O)c1ccc(NC(=O)CNC2CCCCC2)cc1.Cl` showed a solubility kinetic of 38.4 µg/mL.
Compound `O=C(c1ccncc1)N1CCc2ccccc2C1` has a solubility kinetic greater than 35.7 µg/mL.
`CC(=O)NCc1ccc(-c2csc(-c3cccs3)n2)cc1` gave a solubility kinetic of 4.8 µg/mL (≈ 15.3 µM).
In the case of `O=C(O)CCn1c(=O)oc2cc(S(=O)(=O)N3CCCC3)ccc21`, the solubility kinetic is reported as greater than 51.1 µg/mL.
For `O=C(NCc1ccccc1Cl)C1CCCO1` (centres undefined), the solubility kinetic was 32.1 µg/mL (≈ 134 µM).
Work on `CCOc1ccc(CCNC(=O)c2cc(C)on2)cc1OCC` yielded a solubility kinetic greater than 47.8 µg/mL.
Compound `[NH-]S(=O)(=O)c1ccccc1.[Na+]` has a solubility kinetic greater than 26.9 µg/mL.
For `Cc1noc(C)c1-c1nc(CS(=O)(=O)c2ccccc2)no1`, the solubility kinetic was 8 µg/mL (≈ 25.1 µM).
`Cc1ccc(NC(=O)C2Oc3ccccc3OC2C)cc1` (centres undefined) showed a solubility kinetic of 28 µg/mL (≈ 98.8 µM).
Compound `CCN(CC)CCOC(=O)c1ccc(Cl)cc1Cl.Cl` has a solubility kinetic greater than 49 µg/mL.
Work on `COc1ccccc1OCC(=O)OCC(=O)NC1CCCCC1` yielded a solubility kinetic greater than 48.2 µg/mL.
Work on `CCOc1ccccc1Nc1nc(N)nc(CN2CCCCC2C)n1` (centres undefined) yielded a solubility kinetic greater than 51.4 µg/mL.
`CCOC(=O)Oc1ccc(/C=C2\N=C(C)OC2=O)cc1` showed a solubility kinetic of 35.9 µg/mL (≈ 130 µM).
`COc1ccc(S(=O)(=O)N2CN3CCN(C3)C2)cc1` showed a solubility kinetic greater than 42.5 µg/mL.
For `Cc1c(C(=O)Nc2ccc(Nc3ccccc3)cc2)cccc1[N+](=O)[O-]`, the solubility kinetic was 1.3 µg/mL (≈ 3.74 µM).
`Cc1nc(-c2ccccn2)nc(SCC(=O)c2ccc(F)cc2)c1Cl` showed a solubility kinetic of 2.4 µg/mL (≈ 6.42 µM).
For `COc1cccc(/C=C2\SC(N3CCC(C)CC3)=NC2=O)c1OC`, the solubility kinetic was 21.5 µg/mL (≈ 62.1 µM).
With `CN(C(=O)c1ccc(Br)o1)C1CCS(=O)(=O)C1` (centres undefined) the solubility kinetic was greater than 48.3 µg/mL.
`CCN(C(=O)COC(=O)CCc1ccccc1)c1ccccc1` showed a solubility kinetic of 44.3 µg/mL (≈ 142 µM).
In the case of `Cc1ccc(NC(=O)C2CCCN(c3ncccn3)C2)cc1C` (centres undefined), the solubility kinetic is reported as 2.1 µg/mL (≈ 6.77 µM).
`CN(C)c1ccc(C(=O)N2CCN(C(=O)C3CCCO3)CC2)cc1` (centres undefined) gave a solubility kinetic greater than 49.7 µg/mL.
`O=C(Oc1ccc(F)cc1)c1cccnc1` showed a solubility kinetic of 26.7 µg/mL (≈ 123 µM).
Compound `COc1ccc(CC(=O)OCC(=O)Nc2cc(Cl)ccc2C)cc1` has a solubility kinetic of 7 µg/mL (≈ 20.1 µM).
`CCCCN(C)C(=O)c1nc2ccccn2c1CN1CCSCC1` gave a solubility kinetic of 48.3 µg/mL (≈ 139 µM).
`CCOC(=O)C1=C(C)NC(=O)NC1/C=C\c1ccccc1` (centres undefined) gave a solubility kinetic of 1.3 µg/mL (≈ 4.54 µM).
`Cc1cc[n+](Cc2ccc([N+](=O)[O-])cc2)cc1.[Br-]` showed a solubility kinetic greater than 46.4 µg/mL.
With `O=C(O)CC(CC(=O)Nc1ccc(C(=O)O)cc1)c1ccccc1` (centres undefined) the solubility kinetic was greater than 49.1 µg/mL.
`O=[N+]([O-])c1cccc(S(=O)(=O)NCCCn2ccnc2)c1` showed a solubility kinetic greater than 46.5 µg/mL.
For `O=C(NCC1CCCO1)c1cc2ccccc2nc1Cl` (centres undefined), the solubility kinetic was greater than 43.6 µg/mL.
For `Cc1cc(NC(=O)c2coc(=O)c(Br)c2)ccc1C(C)C`, the solubility kinetic was 2.5 µg/mL (≈ 7.14 µM).
`Cc1cc2c(cc1C)C(c1ccsc1)CC(=O)N2` (centres undefined) showed a solubility kinetic of 5.1 µg/mL (≈ 19.8 µM).
In the case of `Cc1sc2ncnc(N3CCCC(C)C3)c2c1C.Cl` (centres undefined), the solubility kinetic is reported as 11 µg/mL.
`O=[N+]([O-])c1ccc(N2CCCCC2)nc1N1CCCCC1` gave a solubility kinetic of 5.3 µg/mL (≈ 18.3 µM).
Work on `O=[N+]([O-])c1cccc(OCc2cn3cccnc3n2)c1` yielded a solubility kinetic greater than 40.5 µg/mL.
